These results are taken from PubChem BioAssay (NCI).

Among the test systems are DLD-1 colon; DMS 114 small cell lung; HOP-18 NSCLC; KM20L2 colon; M19-MEL melanoma; MDA-N; P388/ADR leukemia; RXF-631 renal; SN12K1 renal; XF 498 CNS.
What all share (assay): NCI tumour cell line growth inhibition, 48 h

Values joined by “and” are separate entries in the source; they are usually repeats but may differ in a detail not shown here. Equal entries are not always repeated.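 All cell lines were grown in 96-well plates and treated with compound for 48 hours. GI50: concentration for 50% inhibition of growth. TGI denotes the concentration required for complete inhibition of growth.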

In the case of `COc1cc(C[C@H]2c3cc(OC)c(OC)cc3CCN2C)c(Oc2cc3c(cc2OC)-c2c(OC)c(OC)cc4c2[C@H](C3)N(C)CC4)cc1OC`, the TGI in the test with DLD-1 colon is 40.8 µM and 28.3 µM; in the test on DMS 114 small cell lung it was 18 µM and 14.4 µM; in the test on HOP-18 NSCLC it was 40.9 µM and 29.9 µM; with KM20L2 colon, 13.5 µM and 7.75 µM; with M19-MEL melanoma, 16.8 µM and 24.6 µM; with MDA-N it was 13.1 µM. Further, the TGI is 27.9 µM in the test on P388/ADR leukemia; 19.8 µM with RXF-631 renal; 15.4 µM in the test on SN12K1 renal; 16.4 µM and 16.3 µM in the test on XF 498 CNS. Besides, the GI50 with DMS 114 small cell lung was 4 µM; with HOP-18 NSCLC it was 20.1 µM and 15.8 µM; in the test with KM20L2 colon, 2.32 µM; with M19-MEL melanoma it was 11.9 µM; in the test with XF 498 CNS, 6.8 µM.
